Results as given in ChEMBL document CHEMBL1909046, “DrugMatrix in vitro pharmacology data”.
pIC50, pKi: −log10 of the molar value.

Tests used:
[1] = molecular target: Cytochrome P450 3A4 (Homo sapiens, UniProt P08684); conditions: bti-tn-5b1-4; further: in other assays of this panel Not Active means under 50% inhibition at 10 µM
[2] = molecular target: T1, C-X-C chemokine receptor type 2 (Homo sapiens, UniProt P25025); assay type: cell membranes, Membrane; conditions: cho-k1; further: in other assays of this panel Not Active means under 50% inhibition at 10 µM
T1 sequence (P25025 whole entry): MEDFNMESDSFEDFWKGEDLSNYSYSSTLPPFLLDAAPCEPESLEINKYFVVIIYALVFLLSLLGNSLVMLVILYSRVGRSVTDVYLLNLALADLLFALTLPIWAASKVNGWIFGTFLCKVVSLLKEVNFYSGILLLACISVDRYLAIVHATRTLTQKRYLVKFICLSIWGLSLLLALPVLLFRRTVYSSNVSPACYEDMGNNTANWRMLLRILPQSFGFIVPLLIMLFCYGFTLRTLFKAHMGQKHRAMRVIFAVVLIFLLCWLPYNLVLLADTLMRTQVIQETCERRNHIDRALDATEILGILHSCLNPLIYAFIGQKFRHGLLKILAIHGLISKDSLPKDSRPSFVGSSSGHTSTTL

[3] = molecular target: T2, 5-hydroxytryptamine receptor 2C (Homo sapiens, UniProt P28335); assay: DRUGMATRIX: Serotonin (5-Hydroxytryptamine) 5-HT2C radioligand binding (ligand: [3H] Mesulergine); assay type: cell membranes, CHO-K1, Membrane; conditions: cho-k1; Not Active = under 50% inhibition at 10 µM
T2 sequence (P28335 whole entry): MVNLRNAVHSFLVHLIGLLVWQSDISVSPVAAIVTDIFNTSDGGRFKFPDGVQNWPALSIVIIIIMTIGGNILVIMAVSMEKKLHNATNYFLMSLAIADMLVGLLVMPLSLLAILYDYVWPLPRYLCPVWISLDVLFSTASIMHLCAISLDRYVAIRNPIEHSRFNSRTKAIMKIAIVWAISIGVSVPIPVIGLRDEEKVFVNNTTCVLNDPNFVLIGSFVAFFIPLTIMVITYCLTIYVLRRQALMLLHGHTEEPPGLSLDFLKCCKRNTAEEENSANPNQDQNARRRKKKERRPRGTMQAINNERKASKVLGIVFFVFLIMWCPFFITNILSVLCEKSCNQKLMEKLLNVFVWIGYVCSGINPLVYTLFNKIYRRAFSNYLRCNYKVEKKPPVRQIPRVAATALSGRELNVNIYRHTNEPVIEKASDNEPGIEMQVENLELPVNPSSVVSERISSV

[4] = molecular target: Adenosine receptor A2a (Homo sapiens, UniProt P29274); assay: DRUGMATRIX: Adenosine A2A radioligand binding (ligand: […]); assay type: cell membranes, HEK293, Membrane; conditions: Not Active = under 50% inhibition at 10 µM; for IC50 / Ki: hek293
[5] = molecular target: C-C chemokine receptor type 5 (Homo sapiens, UniProt P51681); assay type: cell membranes, Membrane; conditions: hek293; further: in other assays of this panel Not Active means under 50% inhibition at 10 µM
[6] = molecular target: Melanocortin receptor 5 (Homo sapiens, UniProt P33032); assay type: cell membranes, HEK293, Membrane; conditions: hek293; further: in other assays of this panel Not Active means under 50% inhibition at 10 µM
[7] = molecular target: Estrogen receptor beta (Homo sapiens, UniProt Q92731); conditions: sf9; further: in other assays of this panel Not Active means under 50% inhibition at 10 µM
Estrogen receptor beta, sequence (Q92731 whole entry): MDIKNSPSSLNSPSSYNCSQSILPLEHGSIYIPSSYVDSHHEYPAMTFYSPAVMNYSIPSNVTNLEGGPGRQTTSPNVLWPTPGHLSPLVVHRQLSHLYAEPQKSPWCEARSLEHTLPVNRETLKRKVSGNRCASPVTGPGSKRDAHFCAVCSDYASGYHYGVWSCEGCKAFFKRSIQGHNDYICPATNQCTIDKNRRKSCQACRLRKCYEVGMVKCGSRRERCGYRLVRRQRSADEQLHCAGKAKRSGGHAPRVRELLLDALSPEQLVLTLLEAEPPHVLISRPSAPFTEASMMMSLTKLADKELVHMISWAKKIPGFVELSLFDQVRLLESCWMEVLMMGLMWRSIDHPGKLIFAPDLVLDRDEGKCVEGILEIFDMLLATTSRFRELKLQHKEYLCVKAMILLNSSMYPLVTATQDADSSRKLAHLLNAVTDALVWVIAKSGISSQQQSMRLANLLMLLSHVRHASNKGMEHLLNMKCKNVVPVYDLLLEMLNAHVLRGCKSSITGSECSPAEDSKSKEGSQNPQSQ

Adenosine receptor A2a, sequence (P29274 whole entry): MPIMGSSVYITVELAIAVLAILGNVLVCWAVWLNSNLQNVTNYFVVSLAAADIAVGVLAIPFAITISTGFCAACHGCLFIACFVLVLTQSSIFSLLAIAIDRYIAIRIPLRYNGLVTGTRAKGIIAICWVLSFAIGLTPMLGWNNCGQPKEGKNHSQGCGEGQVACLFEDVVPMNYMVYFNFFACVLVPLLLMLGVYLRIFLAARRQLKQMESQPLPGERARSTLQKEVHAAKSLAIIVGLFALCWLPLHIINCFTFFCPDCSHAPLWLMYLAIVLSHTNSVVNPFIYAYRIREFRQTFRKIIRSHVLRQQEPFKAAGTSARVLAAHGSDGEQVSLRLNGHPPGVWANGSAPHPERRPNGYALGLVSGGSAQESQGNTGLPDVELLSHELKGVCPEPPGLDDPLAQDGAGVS
Melanocortin receptor 5, sequence (P33032 whole entry): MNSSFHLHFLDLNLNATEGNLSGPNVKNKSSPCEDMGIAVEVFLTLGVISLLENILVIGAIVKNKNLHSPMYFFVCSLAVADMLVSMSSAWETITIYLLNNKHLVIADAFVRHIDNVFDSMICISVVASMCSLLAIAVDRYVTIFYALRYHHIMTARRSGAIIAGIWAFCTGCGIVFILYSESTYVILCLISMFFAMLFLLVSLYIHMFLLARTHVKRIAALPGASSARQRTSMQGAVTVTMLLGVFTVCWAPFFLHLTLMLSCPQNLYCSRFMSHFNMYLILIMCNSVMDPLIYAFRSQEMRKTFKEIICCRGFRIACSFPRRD
Cytochrome P450 3A4, sequence (P08684 whole entry): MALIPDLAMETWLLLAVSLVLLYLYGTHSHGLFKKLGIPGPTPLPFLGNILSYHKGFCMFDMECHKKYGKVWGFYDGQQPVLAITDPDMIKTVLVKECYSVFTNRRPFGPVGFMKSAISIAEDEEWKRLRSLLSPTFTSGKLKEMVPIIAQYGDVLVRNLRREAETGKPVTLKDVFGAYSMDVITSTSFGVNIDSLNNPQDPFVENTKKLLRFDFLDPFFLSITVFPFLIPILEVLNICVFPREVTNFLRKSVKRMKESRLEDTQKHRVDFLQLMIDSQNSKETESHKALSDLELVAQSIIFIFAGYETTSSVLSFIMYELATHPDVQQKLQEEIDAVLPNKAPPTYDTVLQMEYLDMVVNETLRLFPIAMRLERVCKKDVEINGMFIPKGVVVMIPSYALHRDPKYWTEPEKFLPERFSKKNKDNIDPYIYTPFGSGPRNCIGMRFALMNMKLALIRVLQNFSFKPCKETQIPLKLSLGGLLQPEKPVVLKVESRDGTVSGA
C-C chemokine receptor type 5, sequence (P51681 whole entry): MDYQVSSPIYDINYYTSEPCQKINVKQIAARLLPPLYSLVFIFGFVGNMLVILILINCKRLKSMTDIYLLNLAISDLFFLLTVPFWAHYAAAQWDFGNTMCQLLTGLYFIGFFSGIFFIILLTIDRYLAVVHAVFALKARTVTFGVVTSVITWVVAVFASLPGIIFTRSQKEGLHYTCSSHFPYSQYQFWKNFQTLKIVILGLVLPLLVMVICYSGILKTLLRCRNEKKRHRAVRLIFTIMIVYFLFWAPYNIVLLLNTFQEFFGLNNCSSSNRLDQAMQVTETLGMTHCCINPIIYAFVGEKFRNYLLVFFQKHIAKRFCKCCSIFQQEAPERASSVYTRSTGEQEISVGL

O=C(O)c1ccccc1O [SALICYLIC ACID]
IC50 [1]: Not Active | Ki [1]: Not Active | IC50 [2]: Not Active | IC50 [3]: Not Active | IC50 [4]: Not Active | IC50 [5]: Not Active | IC50 [6]: Not Active

C[S+]([O-])c1ccc(-c2nc(-c3ccncc3)c(-c3ccc(F)cc3)[nH]2)cc1 (stereo unspecified) [SB-203580]
IC50 [1]: Not Active | Ki [1]: Not Active | IC50 [7]: Not Active | IC50 [2]: Not Active | IC50 [3]: Not Active | pIC50 ([4]; read-out: IC50): 5.22 | pKi ([4]; read-out: Ki): 5.47 | IC50 [5]: Not Active | IC50 [6]: Not Active

CC1CCC(NC(=O)N(CCCl)N=O)CC1 (stereo unspecified) [SEMUSTINE]
IC50 [1]: Not Active | Ki [1]: Not Active | IC50 [7]: Not Active | IC50 [2]: Not Active | IC50 [3]: Not Active | IC50 [4]: Not Active | IC50 [5]: Not Active | IC50 [6]: Not Active

O=C1C[C@@H]2OCC=C3CN4CC[C@]56c7ccccc7N1[C@H]5[C@H]2[C@H]3C[C@H]46 [STRYCHNINE]
IC50 [1]: Not Active | Ki [1]: Not Active | IC50 [2]: Not Active | IC50 [3]: Not Active | IC50 [4]: Not Active | IC50 [5]: Not Active | IC50 [6]: Not Active

C[N+](C)(C)CCOC(=O)CCC(=O)OCC[N+](C)(C)C.[Cl-].[Cl-] [SUCCINYLCHOLINE CHLORIDE]
IC50 [1]: Not Active | Ki [1]: Not Active | IC50 [7]: Not Active | IC50 [2]: Not Active | IC50 [3]: Not Active | IC50 [4]: Not Active | IC50 [5]: Not Active | IC50 [6]: Not Active

Nc1ccc(S(=O)(=O)NC(=O)c2ccccc2)cc1 [SULFABENZAMIDE]
IC50 [1]: Not Active | Ki [1]: Not Active | IC50 [7]: Not Active | IC50 [2]: Not Active | IC50 [3]: Not Active | IC50 [4]: Not Active | IC50 [5]: Not Active | IC50 [6]: Not Active

CCCCCCCCNC(C)C(O)c1ccc(SC(C)C)cc1 (stereo unspecified) [SULOCTIDIL]
IC50 [1]: Not Active | Ki [1]: Not Active | IC50 [7]: Not Active | IC50 [2]: Not Active | IC50 [3]: Not Active | IC50 [4]: Not Active | IC50 [5]: Not Active | IC50 [6]: Not Active

O=c1[nH]c(=O)n(C2CCCO2)cc1F (stereo unspecified) [TEGAFUR]
IC50 [1]: Not Active | Ki [1]: Not Active | IC50 [7]: Not Active | IC50 [2]: Not Active | IC50 [3]: Not Active | IC50 [4]: Not Active | IC50 [5]: Not Active | IC50 [6]: Not Active

CC(=N)S [THIOACETAMIDE]
IC50 [1]: Not Active | Ki [1]: Not Active | IC50 [7]: Not Active | IC50 [2]: Not Active | IC50 [3]: Not Active | IC50 [4]: Not Active | IC50 [5]: Not Active | IC50 [6]: Not Active

Cc1ccc(C(=O)c2ccc(CC(=O)O)n2C)cc1 [TOLMETIN]
IC50 [1]: Not Active | Ki [1]: Not Active | IC50 [7]: Not Active | IC50 [2]: Not Active | IC50 [3]: Not Active | IC50 [4]: Not Active | IC50 [5]: Not Active | IC50 [6]: Not Active

CC(=O)OCC(COC(C)=O)OC(C)=O [TRIACETIN]
IC50 [1]: Not Active | Ki [1]: Not Active | IC50 [7]: Not Active | IC50 [2]: Not Active | IC50 [3]: Not Active | IC50 [4]: Not Active | IC50 [5]: Not Active | IC50 [6]: Not Active

CN1CCN(CCCN2c3ccccc3Sc3ccc(C(F)(F)F)cc32)CC1 [TRIFLUOPERAZINE]
IC50 [7]: Not Active | IC50 [2]: Not Active | IC50 [3]: Not Active | IC50 [4]: Not Active | IC50 [5]: Not Active | IC50 [6]: Not Active

TRANSPLATIN
IC50 [1]: Not Active | Ki [1]: Not Active | IC50 [7]: Not Active | Ki [7]: Not Active | IC50 [2]: Not Active | Ki [2]: Not Active | IC50 [3]: Not Active | Ki [3]: Not Active | IC50 [4]: Not Active | Ki [4]: Not Active | IC50 [5]: Not Active | Ki [5]: Not Active | IC50 [6]: Not Active | Ki [6]: Not Active

ZIRCONIUM(IV) CHLORIDE
IC50 [1]: Not Active | Ki [1]: Not Active | IC50 [7]: Not Active | Ki [7]: Not Active | IC50 [2]: Not Active | Ki [2]: Not Active | IC50 [3]: Not Active | Ki [3]: Not Active | IC50 [4]: Not Active | Ki [4]: Not Active | IC50 [5]: Not Active | Ki [5]: Not Active | IC50 [6]: Not Active | Ki [6]: Not Active
